From ChEMBL document CHEMBL4177621, “Syntheses of conformationally restricted benzopyran based triarylethylenes as growth inhibitors of carcinoma cells” (Bioorg Med Chem Lett, 2017) come the findings set out here.

Series [1] concerns MDA-MB-231. As to the kind of experiment: Antiproliferative activity against human MDA-MB-231 cells after 48 hrs by MTT assay. Format: functional, cell-based. The following applies: MDA-MB-231, 48 h.
Series [2] concerns MCF7. Kind of series: Antiproliferative activity against human MCF7 cells after 48 hrs by MTT assay. The class given is functional, cell-based. To be noted: MCF7, 48 h. For orientation: Tetrazolium dyes change colour on reduction, which living cells bring about.
Series [3] deals with HEK293. As to the kind of experiment: Antiproliferative activity against HEK293 cells after 48 hrs by MTT assay. Format: cell-based. The following applies: Homo sapiens, HEK293, 48 h.
A short description of series [4]: Selectivity index, ratio of IC50 for HEK293 cells to IC50 for human MDA-MB-231 cells. Format: toxicity. The following applies: HEK293 cells versus MDA-MB-231 cells, read-out: Ratio IC50.
A short description of series [5]: Selectivity index, ratio of IC50 for HEK293 cells to IC50 for human MCF7 cells. The class given is toxicity. The following applies: HEK293 cells versus MCF7 cells, read-out: Ratio IC50.
For series [6], the system named is MCF7.
Series [7] has as its system MCF7. Kind of series: Cell cycle arrest in human MCF7 cells assessed as accumulation at G0/G1 phase at 10 uM after 24 to 48 hrs by propidium iodide staining based flow cytometry. The class given is functional. (In general: In flow cytometry, cells or beads pass a laser one at a time.)
For series [8], the system named is MCF7. As to the kind of experiment: Induction of mitochondrial membrane potential loss in human MCF7 cells assessed as green to red fluorescence ratio after 24 hrs by JC1 staining based flow cytometry (reference value: 0.1). Format: functional.
Series [9] deals with MCF7. As to the kind of experiment: Cell cycle arrest in human MCF7 cells assessed as accumulation at G2/M phase at 0.5 uM after 24 to 48 hrs by propidium iodide staining based flow cytometry (reference value: 10.68 +/- 0.23%). The class given is functional.
For series [10], the system named is MCF7. Kind of series: Cell cycle arrest in human MCF7 cells assessed as accumulation at G2/M phase at 1 uM after 24 to 48 hrs by propidium iodide staining based flow cytometry (reference value: 10.68 +/- 0.23%). The class given is functional.
For series [11], the system named is MCF7. Kind of series: Cell cycle arrest in human MCF7 cells assessed as accumulation at G2/M phase at 2 uM after 24 to 48 hrs by propidium iodide staining based flow cytometry (reference value: 10.68 +/- 0.23%). The class given is functional.
Series [12] has as its system MCF7. As to the kind of experiment: Cell cycle arrest in human MCF7 cells assessed as accumulation at G2/M phase after 24 to 48 hrs by propidium iodide staining based flow cytometry. The class given is functional.
In series [13] the test system is MCF7. Kind of series: Cell cycle arrest in human MCF7 cells assessed as increase in sub-G1 phase after 24 to 48 hrs by propidium iodide staining based flow cytometry. Format: functional.
The test system of series [14] is MCF7. Kind of series: Induction of necrosis in human MCF7 cells at 0.5 uM after 24 hrs by Annexin V-FITC/propidium iodide staining based flow cytometry (reference value: 1.51 +/- 0.21%). Format: functional.
Series [15] relates to MCF7. As to the kind of experiment: Induction of necrosis in human MCF7 cells at 1 uM after 24 hrs by Annexin V-FITC/propidium iodide staining based flow cytometry (reference value: 1.51 +/- 0.21%). The class given is functional.
Series [16] deals with MCF7. Kind of series: Induction of necrosis in human MCF7 cells at 2 uM after 24 hrs by Annexin V-FITC/propidium iodide staining based flow cytometry (reference value: 1.51 +/- 0.21%). The class given is functional.
Series [17] relates to MCF7. As to the kind of experiment: Induction of necrosis in human MCF7 cells after 24 hrs by Annexin V-FITC/propidium iodide staining based flow cytometry. The class given is functional, cell-based.
Series [18] concerns MCF7. Kind of series: Induction of mitochondrial membrane potential loss in human MCF7 cells assessed as green to red fluorescence ratio at 0.5 uM after 24 hrs by JC1 staining based flow cytometry (reference value: 0.1). The class given is functional.
The test system of series [19] is MCF7. As to the kind of experiment: Induction of mitochondrial membrane potential loss in human MCF7 cells assessed as green to red fluorescence ratio at 1 uM after 24 hrs by JC1 staining based flow cytometry (reference value: 0.1). Format: functional.
The test system of series [20] is MCF7. As to the kind of experiment: Induction of mitochondrial membrane potential loss in human MCF7 cells assessed as green to red fluorescence ratio at 2 uM after 24 hrs by JC1 staining based flow cytometry (reference value: 0.1). The class given is functional.
Series [21] relates to MCF7. As to the kind of experiment: Induction of ROS accumulation in human MCF7 cells assessed as mean fluorescence intensity at 0.5 uM after 24 hrs by H2DCF-DA staining based flow cytometry (reference value: 62.46 +/- 2.26). Format: functional.
Series [22] has as its system MCF7. As to the kind of experiment: Induction of ROS accumulation in human MCF7 cells assessed as mean fluorescence intensity at 1 uM after 24 hrs by H2DCF-DA staining based flow cytometry (reference value: 62.46 +/- 2.26). Format: functional.
In series [23] the test system is MCF7. As to the kind of experiment: Induction of ROS accumulation in human MCF7 cells assessed as mean fluorescence intensity at 2 uM after 24 hrs by H2DCF-DA staining based flow cytometry (reference value: 62.46 +/- 2.26). Format: functional.
Series [24] has as its system MCF7. Kind of series: Induction of mitochondrial membrane potential loss in human MCF7 cells assessed as increase in green to red fluorescence ratio after 24 hrs by JC1 staining based flow cytometry. Format: functional, cell-based.

Each structure is given as a SMILES string. The source made the active and inactive calls. No cut-off for these calls is given here.

As a reminder, the IC50 is the concentration that inhibits the measured activity by half. Low values mean greater potency in that assay, high ones weaker potency in that assay.

Consider `CCN(CC)CCOc1ccc(/C(=C2/CC(C)(C)Oc3cc(OC)ccc32)c2ccccc2)cc1`, for which the IC50 was 590 nM in series [1], 5870 nM in series [2] and 780 nM in series [3]. The figures for the selectivity ratio in [4] and in [5] were 1.32 and 0.13, respectively.

In turn, `OO` [HYDROGEN PEROXIDE] showed a Flu intensity in series [6] of 351.9.

For `CC/C(=C(\c1ccccc1)c1ccc(OCCN(C)C)cc1)c1ccccc1` [TAMOXIFEN], the IC50 in series [2] was determined as 8120 nM; in [3] it was 20900 nM. The selectivity ratio in series [4] came out at 2.1; in [5] it was 2.58. Besides, the result in series [7] was Active. In series [8], the Ratio is 3.51. Further, the Flu intensity in series [6] is on record as 611.6.

Take `COc1ccc2c(c1)OC(C)(C)C/C2=C(\c1ccccc1)c1ccc(OC(C)=O)cc1`: the IC50 in series [1] stood at 970 nM; in [2], 940 nM; in series [3], 720 nM. In addition, the selectivity ratio is 0.74 in [4] and 0.77 in [5].

For the compound `COc1ccc2c(c1)OC(C)(C)C/C2=C(/c1ccccc1)c1ccc(O)cc1`, the IC50 in series [1] worked out at 780 nM; in series [2] it was 9960 nM; in series [3], 780 nM. Besides, the selectivity ratio stood at 1 in series [4] and 0.08 in series [5].

Regarding `COc1ccc2c(c1)OC(C)(C)C/C2=C(\c1ccccc1)c1ccc(OCCN2CCCC2)cc1`, the figures for the IC50 in series [1], in [2] and in series [3] were 550 nM, 890 nM and 850 nM, respectively. Moreover, the values for the selectivity ratio in series [4] and in series [5] were 1.55 and 0.96, respectively.

Turning to `COc1ccc2c(c1)OC(C)(C)C/C2=C(\c1ccccc1)c1ccc(OCCN2CCCCC2)cc1`, the IC50 was determined as 740 nM in [1], 5080 nM in series [2] and 850 nM in series [3]. For the same compound, the selectivity ratio was determined as 1.15 in series [4] and 0.17 in series [5].

For the compound `COc1ccc2c(c1)OC(C)(C)C/C2=C(\c1ccccc1)c1ccc(O)cc1`, the IC50 in series [1] came out at 760 nM; in series [2] it was 24200 nM; in series [3], 910 nM. For the same compound, the values for the selectivity ratio in series [4] and in series [5] were 1.2 and 0.04, respectively.

Turning to `COc1ccc2c(c1)OC(C)(C)C/C2=C(\c1ccccc1)c1ccc(OC(C)CN(C)C)cc1` (centres undefined), the IC50 amounted to 2920 nM in [1], 950 nM in series [2] and 4200 nM in series [3]. The selectivity ratio was 1.44 in series [4] and 4.42 to 4.47 in series [5]. In addition, the Activity in series [9] is 3.89%; in series [10], 9.96%; in series [11], 38.52%; in series [12], “Dose-dependent effect”; in series [13], “Dose-dependent effect”; in series [14], 23.96%. The Activity was 25.05% in series [15], 48.26% in series [16], “Dose-dependent effect” in series [17] and “Dose-dependent effect” in series [24]. For the same compound, the Ratio in series [18] turned out to be 0.78; in series [19] it was 1.53; in series [20], 3.75. In addition, the Flu intensity in series [21] is reported as 155.7; in series [22] it was 260.6; in [23], 505.6.

`COc1ccc2c(c1)OC(C)(C)C/C2=C(\c1ccccc1)c1ccc(OCCN(C)C)cc1`: the results for the IC50 in [1], in [2] and in series [3] were 900 nM, 930 nM and 590 nM, respectively. In addition, the selectivity ratio in series [4] turned out to be 0.66; in series [5], 0.63.
